Here are results for one molecule from patent publication US8226989B2, “Anti-adipocyte fatty acid-binding protein (AP2), anti-flap and anti-CySLT1 receptor herbal compositions” (Laila Impex, priority 2008, dated 2012).

This experiment relates to adipocyte fatty acid-binding protein aP2. In words: aP2 protein expression in LPS induced THP-1 monocyte-macrophage cells (immuno-western blot). As to conditions: THP-1 cells pre-treated 2 h, then LPS; extracts 5 or 10 μg/ml, 5-Loxin 5 μg/ml, montelukast 1 μM, NDGA 10 μM. Type of experiment: cell-based, human.

Experimental: In this experiment, THP-1 human monocyte-macrophage cells were pre-treated with 5 or 10 μg/ml of each ingredient for 2 h and thereafter printed with LPS to induce the inflammatory response. The cellular proteins were extracted by cell lysis buffer and subjected to Immuno-Western blot to detect the modulation of expression of aP2 protein.
The cellular proteins were extracted by cell lysis buffer and subjected to immuno-western blot to detect the modulation of expression of aP2 protein.
Similar experiment was also conducted on Aegle marmelos, Zingiber officinale and G. mangostana extracts.

Consider `CC(Cc1ccc(O)c(O)c1)C(C)Cc1ccc(O)c(O)c1` (stereo not shown) [NDGA, Nordihydroguaiaretic Acid], for which the “inhibition of LPS induced aP2 protein expression” value is recorded as “significantly reduced”.
